Consider one molecule from patent publication US20050234073A1, “Methods of inhibiting inflammation” (priority 2003, published 2005).

The subject of one assay is splenocytes. Nature of the assay: Splenocyte / CD11c+ dendritic cell CD1d-restricted presentation to DN32 and 24.8 NKT cells (IL-2 ELISA). It is filed as cell-based, mouse. As for the experimental part: FIG. 17B is a series of bar charts showing IL-2 production of splenocytes isolated from wild type mice in the presence or absence of exogenous antigens. Splenocytes were incubated for 24 hours with BMS212122 and washed. Exogenous antigens ovalbumin or α-galcer was added as indicated. Splenocytes were then co cultured with: CD4^+ cells from an OT-II transgenic mouse (left); DN32 NKT cells (center); or autoreactive 24.8 NKT cells (right). IL-2 concentrations were measured by ELISA of 40 hour culture supernatants. *, p<0.05.
FIG. 17C is a bar chart showing IL-2 production of splenocytes or bone marrow derived dendritic cells co cultured with 24.8 NKT cells and incubated for 24 hours with BMS212122. Anti-CD1d mAb 1B1 or an isotype control was added as indicated. IL-2 concentrations were measured by ELISA of 40 hour culture supernatants. (nd=not detected) *, p<0.02.
APCs were incubated with 100 ng/mL α-galcer (kindly provided by Dr. H. Ploegh) for 3 hours, washed three times in PBS and aliquoted into a 96 well plate at 10^6 cells/mL. DN32 cells were added at 1:1 E:T ratio unless otherwise indicated. CD4^+ cells were isolated from spleens of OT-II transgenic mice using positive selection on CD4 magnetic beads (Miltenyi Biotec) and incubated with APCs and 100 μg/mL ovalbumin. […] Mouse IL-2 production was assessed by ELISA (OptEIA, BD PharMingen) of 24 or 40 hour culture supernatants. […]
Background: In an ELISA, binding on a coated surface is turned into a signal by an enzyme label.

Assay [1] has as its system splenocytes, CD11c-positive splenic DCs and BMDCs. Nature of the assay: MHC class II-restricted presentation of ovalbumin to OT-II CD4+ T cells (IL-2 ELISA). It is filed as cell-based, mouse. Here is the method: FIG. 17F is a bar chart showing 11-2 production of CD11c^+ splenocytes incubated for 24 hours with BMS212122 or bone marrow derived dendritic cells incubated for 3 days with BMS212122 were washed and co cultured with 100 μg/mL ovalbumin and 100,000 CD4^+ cells from an OT-II transgenic mouse. IL-2 concentrations were measured by ELISA of 24 hour culture supernatants.
APCs were incubated with 100 ng/mL α-galcer (kindly provided by Dr. H. Ploegh) for 3 hours, washed three times in PBS and aliquoted into a 96 well plate at 10^6 cells/mL. DN32 cells were added at 1:1 E:T ratio unless otherwise indicated. CD4^+ cells were isolated from spleens of OT-II transgenic mice using positive selection on CD4 magnetic beads (Miltenyi Biotec) and incubated with APCs and 100 μg/mL ovalbumin. The 24.8 NKT cell line was incubated with APCs in the absence of added antigen at E:T=2:1 unless otherwise indicated. Mouse IL-2 production was assessed by ELISA (OptEIA, BD PharMingen) of 24 or 40 hour culture supernatants. APCs were treated with BMS212122 (10 uM dissolved in DMSO; kindly provided by Bristol Myers Squibb, New Jersey) as indicated and washed prior to addition of T or NKT cells. […]

The subject of the next assay is BMDCs. Nature of the assay: Flow cytometry of surface markers on BMDCs. The class given is cell-based, mouse. As for the experimental part:
FIG. 17E is a flow cytometric analysis showing BMDCs cultured for 4 days with BMS212122 were stained with FITC-conjugated mAb 1B1. Dashed line represents the isotype control.
FIG. 18 is flow cytometric analysis of in vitro differentiated bone marrow cells from wild type mice incubated with BMS212122 (MTPi) or vehicle Surface staining was performed using antibodies to MHC II (FITC-conjugated) and CD11c (PE-conjugated).
Bone marrow was extracted from the femurs of C57BL6 or MTPmx1cre mice, washed once in PBS and resuspended in R10 supplemented with culture supernatant from murine GM-CSF transfected cells for a final concentration of 200 U/mL GM-CSF. BMDCs were then cultured in bacteriological plates for 12-14 days as described. Differentiated cells were harvested by gentle pipetting, washed in PBS, and analyzed by flow cytometry for surface expression of CD11c and I-A^b. Human monocytes were harvested from the peripheral blood of healthy volunteers by positive selection on CD14 magnetic beads (Miltenyi Biotec) and cultured in R10 medium at 10^6 cells per mL supplemented with 200 U/mL recombinant hIL-4 and 300 U/mL recombinant hGM-CSF (PeproTech, Rocky Hill, N.J.). After 5 days cells were dislodged by gentle pipetting, analyzed by flow cytometry and assayed for antigen presentation.
Mouse cells were stained using the following antibodies: FITC-conjugated α-CD1d (1B1, PharMingen); PE-conjugated α-CD11c (HL3, PharMingen); FITC-conjugated α-1-A^d (AMS-32.1, PharMingen); PE-conjugated α-CD69 (H1.2F3, PharMingen); PE-conjugated α-B220 (RA3-6B2, PharMingen). Human cells were stained using: PE-conjugated α-CD83 (550634, PharMingen); FITC-conjugated α-HLA-A,B,C (557348, PharMingen); α-HLA DR,DP,DQ (32381A, PharMingen); α-CD1d (42.1 or 51.1.3); α-mouse IgG+IgM (AMI1708, Biosource, Camarillo, Calif.). Staining was performed in the presence of Via-Probe (PharMingen) and analyzed with a FACSort flow cytometer (Becton Dickinson).
The role of MTP in CD1d presentation by primary mouse APCs was examined. Splenocytes were isolated from wild type mice and assayed for their ability to present an exogenous antigen, α-galcer, to DN32 NKT cells and their ability to stimulate the autoreactive NKT cell line 24.8. When splenocytes were incubated with BMS212122 for 24 hours prior to addition of NKT cells, their ability to present exogenous and endogenous CD1d-restricted antigens was reduced (FIG. 17B). […] Dendritic cells were then isolated from wild type splenocytes by positive selection on CD11c magnetic beads. […] Dendritic cells from mouse bone marrow (BMDC) were cultured with BMS212122 or vehicle control after 6 days of differentiation in the presence of GM-CSF. On day 10, BMDCs were collected and cocultured with NKT cells. […]
Background: A flow cytometer gives signals particle by particle.

Another assay concerns HepG2 cells. The conditions noted are these: cited from earlier work.

Consider `Cc1ccc2c(nc(C)n2CCCCC2(C(=O)NCC(F)(F)F)c3ccccc3-c3ccccc32)c1NC(=O)c1ccccc1-c1ccc(C(F)(F)F)cc1` [BMS212122, 9-[4-[2,5-Dimethyl-4-[[[4′-(trifluoromethyl)[1,1′-biphenyl]-2-yl]carbonyl]amino]-1H-benzimidazol-1-yl]butyl]-N-(2,2,2-trifluoroethyl)-9H-fluorene-9-carboxamide], for which, in the assay with splenocytes (CD11c-positive dendritic cell population from splenocytes), the “effect on presentation of an endogenous ligand to 24.8 NKT cells” value is on record as “highly pronounced”. The “ability to present exogenous and endogenous CD1d-restricted antigens” value with splenocytes (splenocytes incubated 24 hours with inhibitor prior to addition of NKT cells) is on record as “reduced”. For the same molecule, the “presentation of ovalbumin to CD4+ MHC class II-restricted ovalbumin-specific T cells” value in assay [1] (CD11c-positive splenic DCs and BMDCs, inhibitor-treated) was “efficient presentation”. Besides, the “splenocyte presentation of ovalbumin to MHC class II-restricted T cell line OT-II” value in assay [1] (splenocytes, 24 hours inhibitor) is given as “no effect”. Also, in the assay on BMDCs (BMDCs), the CD11c surface staining result is “unaffected” and the “MHC class II surface staining” value is on record as “unaffected”. Also, the “CD1d expression on BMDCs, % of vehicle controls” value in the assay on BMDCs (after 4 days of treatment) is 66%. Also, in the assay on BMDCs (one day after addition), the “CD1d expression on BMDCs, % of level in vehicle treated controls” value stood at 86%. For the same molecule, the “secretion of apoB from HepG2 cells” value in the assay on HepG2 cells was “prevents secretion”.
